The text below walks through data of patent publication US20200055839A1 (priority 2017, published 2020).

The EC50 is the concentration giving half of the maximal effect. Higher therefore signals a less potent agent.

The test system of the first test is NL-RLuc virus. As to the kind of experiment: Inhibition of HIV replication (NL-RLuc virus, luciferase readout in MT-2 cells). As to conditions: Human immunodeficiency virus 1, MT2, 120 h, MT-2 cells infected with NL-RLuc virus, 5 days of incubation, 10% FBS, at least 2 experiments. It counts as cell-based. Put shortly: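 MT-2 cells infected with NL4-3-derived virus carrying Renilla luciferase in place of part of nef, grown 5 days with serial compound dilutions in RPMI 1640/10% FBS. Virus growth read as luciferase expression. EC50 from median effect equation, at least 2 experiments.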
Take `Cc1ncccc1Nc1nc(C)c([C@H](OC(C)(C)C)C(=O)O)c(N2CCC(C)(C)CC2)c1-c1ccc(OCCc2ccc(F)cc2)cc1` [Example 94, (S)-2-(tert-Butoxy)-2-(4-(4,4-dimethylpiperidin-1-yl)-5-(4-(4-fluorophenethoxy)phenyl)-2-methyl-6-((2-methylpyridin-3-yl)amino)pyridin-3-yl)acetic acid]: it took 6 nM to reach a half-maximal effect (EC50).

As for `Cc1cc(F)ccc1CCOc1ncc(-c2cnc(C)c([C@H](OC(C)(C)C)C(=O)O)c2N2CCC(C)(C)CC2)cc1F` [Example 398, (2S)-2-(tert-butoxy)-2-[4-(4,4-dimethylpiperidin-1-yl)-5′-fluoro-6′-[2-(4-fluoro-2-methylphenyl)ethoxy]-6-methyl-[3,3′-bipyridine]-5-yl]acetic acid], the EC50 was 2 nM.

As to `Cc1ncc(-c2ccc(OCCc3ccc(F)cc3Cl)cn2)c(N2CCC(C)(C)CC2)c1[C@H](OC(C)(C)C)C(=O)O` [Example 310, (2S)-2-(tert-butoxy)-2-{5-[2-(2-chloro-4-fluorophenyl)ethoxy]-4′-(4,4-dimethylpiperidin-1-yl)-6′-methyl-[2,3′-bipyridine]-5′-yl}acetic acid], the EC50 came out at 0.5 nM.

Molecule `Cc1nc(NCCC2CCN(C)CC2)c(-c2ccc(OCCc3ccc(F)cc3)cc2)c(N2CCC(C)(C)CC2)c1[C@H](OC(C)(C)C)C(=O)O` [Example 31, (S)-2-(tert-Butoxy)-2-(4-(4,4-dimethylpiperidin-1-yl)-5-(4-(4-fluorophenethoxy)phenyl)-2-methyl-6-((2-(1-methylpiperidin-4-yl)ethyl)amino)pyridin-3-yl)acetic acid] had an EC50 of 0.8 nM.

On to `Cc1nc(C(C)(C)O)c(-c2ccc(OCCc3ccc(F)cc3)c(F)c2)c(N2CCC(C)(C)CC2)c1[C@H](OC(C)(C)C)C(=O)O` (single isomer, unassigned) [Example 242], for which the EC50 is 5 nM.

Consider `Cc1nc(C(=O)N2CCC(C)(C)CC2)c(-c2ccc(OCCc3ccc(F)cc3)cc2)c(N2CCC(C)(C)CC2)c1[C@H](OC(C)(C)C)C(=O)O` [Example 11, (S)-2-(tert-Butoxy)-2-(4-(4,4-dimethylpiperidin-1-yl)-6-(4,4-dimethylpiperidine-1-carbonyl)-5-(4-(4-fluorophenethoxy)phenyl)-2-methylpyridin-3-yl)acetic acid], for which the response was half-maximal at 4 nM (EC50).

`COc1nc(-c2cnc(C)c([C@H](OC(C)(C)C)C(=O)O)c2N2CCC(C)(C)CC2)ccc1OCCc1ccc(F)cc1` [Example 249, (S)-2-(tert-Butoxy)-2-(4′-(4,4-dimethylpiperidin-1-yl)-5-(4-fluorophenethoxy)-6-methoxy-6′-methyl-[2, 3′-bipyridin]-5′-yl)acetic acid] registered a concentration for a half-maximal effect (EC50) of 2 nM.

The molecule `Cc1ncc(-c2ccc(OC(C)C(C)C)nc2)c(N2CCC(C)(C)CC2)c1[C@H](OC(C)(C)C)C(=O)O` (stereo partly drawn) [Example 438, (2S)-2-tert-Butoxy-2-(4-(4,4-dimethylpiperidin-1-yl)-6-methyl-6′-(3-methylbutan-2-yloxy)-3, 3′-bipyridin-5-yl)acetic acid] yielded an EC50 of 14 nM.

`Cc1ccccc1CCOc1ccc(-c2cnc(C)c([C@H](OC(C)(C)C)C(=O)O)c2N2CCC(C)(C)CC2)nc1` [Example 289, (2S)-2-(tert-butoxy)-2-[4′-(4,4-dimethylpiperidin-1-yl)-6′-methyl-5-[2-(2-methylphenyl)ethoxy]-[2,3′-bipyridine]-5′-yl]acetic acid] returned an EC50 of 1 nM.

`Cc1ncc(-c2cnc(OCC(C)(C)C)c(F)c2)c(N2CCC(C)(C)CC2)c1[C@H](OC(C)(C)C)C(=O)O` [Example 375, (2S)-2-(tert-butoxy)-2-[4-(4,4-dimethylpiperidin-1-yl)-6′-(2,2-dimethylpropoxy)-5′-fluoro-6-methyl-[3,3′-bipyridine]-5-yl]acetic acid]: the concentration for a half-maximal effect (EC50) is 8 nM.

As for `COc1c(F)ccc(-c2cnc(C)c([C@H](OC(C)(C)C)C(=O)O)c2N2CCC(C)(C)CC2)c1F` [Example 171, (2S)-2-(tert-Butoxy)-2-[5-(2,4-difluoro-3-methoxyphenyl)-4-(4,4-dimethylpiperidin-1-yl)-2-methylpyridin-3-yl]acetic acid], it took 5 nM to reach a half-maximal effect (EC50).

`Cc1ncc(-c2ccc(OCC(C)C)nc2)c(N2CCC(C)(C)CC2)c1C(OC(C)(C)C)C(=O)O` (stereo in doubt) [Example 409, (S)-2-(tert-butoxy)-2-(4-(4,4-dimethylpiperidin-1-yl)-6′-isobutoxy-6-methyl-[3,3′-bipyridin]-5-yl)acetic acid]: the EC50 was 1 nM.

`Cc1nc(N)c(-c2cc(F)c(OCCc3ccc(F)cc3)cc2F)c(N2CCC(C)(C)CC2)c1[C@H](OC(C)(C)C)C(=O)O` [Example 68, (2S)-2-(6-Amino-5-(2,5-difluoro-4-(4-fluorophenethoxy)phenyl)-4-(4,4-dimethylpiperidin-1-yl)-2-methylpyridin-3-yl)-2-(tert-butoxy)acetic acid] returned an EC50 of 2 nM.

The molecule `Cc1ncc(-c2ccc(C(F)(F)CC(C)C)cn2)c(N2CCC(C)(C)CC2)c1[C@H](OC(C)(C)C)C(=O)O` [Example 274, (S)-2-(tert-Butoxy)-2-(5-(1,1-difluoro-3-methylbutyl)-4′-(4,4-dimethylpiperidin-1-yl)-6′-methyl-[2, 3′-bipyridin]-5′-yl)acetic acid] displayed an EC50 of 16 nM.

`Cc1ncc(-c2cccc(OCCc3ccc(F)cc3)n2)c(N2CCC(C)(C)CC2)c1[C@H](OC(C)(C)C)C(=O)O` [Example 280, (S)-2-(tert-Butoxy)-2-(4′-(4,4-dimethylpiperidin-1-yl)-6-(4-fluorophenethoxy)-6′-methyl-[2, 3′-bipyridin]-5′-yl)acetic acid] returned an EC50 of 20 nM.

On to `Cc1nc(N)c(-c2ccc(OCCc3ccc(F)cc3)cc2F)c(N2CCC(C)(C)CC2)c1[C@H](OC(C)(C)C)C(=O)O` [Example 72, (2S)-2-(6-Amino-4-(4,4-dimethylpiperidin-1-yl)-5-(2-fluoro-4-(4-fluorophenethoxy)phenyl)-2-methylpyridin-3-yl)-2-(tert-butoxy)acetic acid], for which the EC50 stood at 2 nM.

Molecule `Cc1ncc(-c2cccc3ccccc23)c(N2CCC(C)(C)CC2)c1[C@H](OC(C)(C)C)C(=O)O` [Example 182, (2S)-2-(tert-Butoxy)-2-[4-(4,4-dimethylpiperidin-1-yl)-2-methyl-5-(naphthalen-1-yl)pyridin-3-yl]acetic acid] showed a concentration giving a half-maximal response (EC50) of 27 nM.

`C=Cc1nc(C)c(-c2ccc(OCCc3ccc(F)cc3)cc2)c(N2CCC(C)(C)CC2)c1[C@H](OC(C)(C)C)C(=O)O` [Example 1, (S)-2-(tert-Butoxy)-2-(4-(4,4-dimethylpiperidin-1-yl)-5-(4-(4-fluorophenethoxy)phenyl)-6-methyl-2-vinylpyridin-3-yl)acetic acid] came in with an EC50 of 20 nM.

`Cc1ncc(-c2ccc(OCCc3ccc(F)c(F)c3)cn2)c(N2CCC(C)(C)CC2)c1[C@H](OC(C)(C)C)C(=O)O` [Example 299, (2S)-2-(tert-butoxy)-2-{5-[2-(3,4-difluorophenyl)ethoxy]-4′-(4,4-dimethylpiperidin-1-yl)-6′-methyl-[2,3′-bipyridine]-5′-yl}acetic acid] returned an EC50 of 1 nM.

`CC1(C)CCN(c2c(-c3ccc(OCCc4ccc(F)cc4)cc3)cnc(CF)c2[C@H](OC(C)(C)C)C(=O)O)CC1` [Example 7, (S)-2-(tert-Butoxy)-2-(4-(4,4-dimethylpiperidin-1-yl)-2-(fluoromethyl)-5-(4-(4-fluorophenethoxy)phenyl)pyridin-3-yl)acetic acid]: it took 2 nM to reach a half-maximal effect (EC50).

As for `COc1ccc(CCOc2ccc(-c3cnc(C)c([C@H](OC(C)(C)C)C(=O)O)c3N3CCC(C)(C)CC3)nc2)c(C)c1` [Example 292, (2S)-2-(tert-butoxy)-2-[4′-(4,4-dimethylpiperidin-1-yl)-5-[2-(4-methoxy-2-methylphenyl)ethoxy]-6′-methyl-[2,3′-bipyridine]-5′-yl]acetic acid], a half-maximal effect (EC50) was put at 2 nM.

`Cc1nc(NCCCN2CCCCC2)c(-c2ccc(OCCc3ccc(F)cc3)cc2)c(N2CCC(C)(C)CC2)c1[C@H](OC(C)(C)C)C(=O)O` [Example 35, (S)-2-(tert-Butoxy)-2-(4-(4,4-dimethylpiperidin-1-yl)-5-(4-(4-fluorophenethoxy)phenyl)-2-methyl-6-((3-(piperidin-1-yl)propyl)amino)pyridin-3-yl)acetic acid] gave an EC50 of 1 nM.

Molecule `Cc1ncc(-c2ccc(OCCc3ccc(F)cc3)c(F)c2F)c(N2CCC(C)(C)CC2)c1[C@H](OC(C)(C)C)C(=O)O` [Example 124, (S)-2-(tert-Butoxy)-2-(5-(2,3-difluoro-4-(4-fluorophenethoxy)phenyl)-4-(4,4-dimethylpiperidin-1-yl)-2-methylpyridin-3-yl)acetic acid] showed an EC50 of 2 nM.

In turn, `Cc1nc(OCCc2ccc(F)cc2)ccc1-c1cnc(C)c([C@H](OC(C)(C)C)C(=O)O)c1N1CCC(C)(C)CC1` [Example 260, (S)-2-(tert-Butoxy)-2-(4-(4,4-dimethylpiperidin-1-yl)-6′-(4-fluorophenethoxy)-2′,6-dimethyl-[3, 3′-bipyridin]-5-yl)acetic acid] showed an EC50 of 11 nM.

Take `CCCCNc1ncc(-c2cnc(C)c([C@H](OC(C)(C)C)C(=O)O)c2N2CCC(C)(C)CC2)cc1F` [Example 414, (S)-2-(tert-Butoxy)-2-(6′-(butylamino)-4-(4,4-dimethylpiperidin-1-yl)-5′-fluoro-6-methyl-[3,3′-bipyridin]-5-yl)acetic acid]: the EC50 came out at 3 nM.

Still in this test, the particulars now being: MT-2 cells infected with NL-RLuc virus, 5 days of incubation, 10% FBS, at least 2 experiments.
In the case of `Cc1nc(Nc2ncccn2)c(-c2ccc(OCCc3ccc(F)cc3)c(F)c2)c(N2CCC(C)(C)CC2)c1[C@H](OC(C)(C)C)C(=O)O` [Example 69, (S)-2-(tert-Butoxy)-2-(4-(4,4-dimethylpiperidin-1-yl)-5-(3-fluoro-4-(4-fluorophenethoxy)phenyl)-2-methyl-6-(pyrimidin-2-ylamino)pyridin-3-yl)acetic acid], the EC50 was determined as 3 nM.
